Experiment [1] has as its system VEGF-induced angiogenesis. Nature of the experiment: in vivo rabbit eye model assay, VEGF-induced corneal angiogenesis. The method, then: (§1) Hydron polymer pellets containing growth factor and monoclonal antibodies (mAbs) were prepared as described by D'Amato, et al., Proc. Natl. Acad. Sci., 91:4082–4085 (1994). […] In addition, hydron pellets were prepared which contained either 40 μg of the mAb P1F6 (anti-αvβ5) or the control antibody, LM609 (anti-αvβ3), in PBS.
(§2) All of the mAbs tested were purified from ascites fluid using Protein-A Sepharose CL-4B affinity column chromatography according to well-known methods. The eluted immunoglobulin was then dialyzed against PBS and treated with Detoxi-gel (Pierce Chemicals, Rockford, Ill.) to remove endotoxin. […] Monoclonal antibodies were therefore tested for the presence of endotoxin with the Chromogenic Limulus Amebocyte Lysate Assay (BioWhittaker, Walkersville, Md.) and only those mAbs without detectable endotoxin were used in the rabbit eye model assay.
(§3) Approximately 12 μl of casting material was placed into each peg and polymerized overnight in a sterile hood. Pellets were then sterilized by ultraviolet irradiation.
A series of eight animals were used for paired eye experiments where each animal received a Hydron implant containing a preselected cytokine with a preselected antibody or control immunoglobulin. Specifically, for each rabbit, one cornea was surgically implanted with a Hydron pellet containing either bFGF or VEGF in conjunction with mAb P1F6 and the other cornea was treated with either bFGF or VEGF in conjunction with MAb LM609. […]
(§4) The effects of specific mAb integrin immunoreactivity on the above cytokine-induced angiogenesis is also quantified as shown in FIGS. 2A and 2B. […] Photographs were recorded on Kodak Ektachrome 64T slide film and images were converted for computer-assisted quantitation using Biorad's Molecular Analyst 1.1 software after acquisition through a Model GS670 imaging densitometer. […]
(§5) Each experiment consisted of eight rabbits in which one eye received a pellet comprising 100 nanograms (ng) bFGF and the other eye received a pellet comprising 1 microgram (ug) VEGF. […] After 7 days, the cornea were evaluated as described above.

For the next experiment, the system named is UCLAP-3 tumors. The experiment is described as follows: tumor regression on chick CAM, UCLAP-3 tumors, intravenous peptide. Type of experiment: in vivo. To be noted: 100 ug peptide intravenously 18 hours postimplantation; 48 hours more. The method, then: In one particular set of assays, additional tumor regression assays were performed with the αvβ5-reactive peptide 85189 (SEQ ID NO 9) against 69601 (SEQ ID NO 5) as a control. The assays were performed as described above with the exception that 100 ug of peptide was intravenously injected into the CAM at 18 hourst postimplantation of the various tumors which in this case included UCLAP-3, M21-L and FgM tumor types. After 48 hours more, the tumors were then resected and wet weights were obtained.

The subject of experiment [2] is bFGF-induced angiogenesis. The experiment is described as follows: in vivo rabbit eye model assay, bFGF-induced corneal angiogenesis. The method, then: as §1, §2, §3
A series of eight animals were used for paired eye experiments where each animal received a Hydron implant containing a preselected cytokine with a preselected antibody or control immunoglobulin. Specifically, for each rabbit, one cornea was surgically implanted with a Hydron pellet containing either bFGF or VEGF in conjunction with mAb P1F6 and the other cornea was treated with either bFGF or VEGF in conjunction with MAb LM609. Individual pellets were implanted into surgically created “pockets” formed in the mid-stroma of the cornea of rabbits. The surgical procedure was done under sterile technique using a Wild model M691 operating microscope equipped with a beamsplitter to which was mounted a camera for photographically recording individual corneas. A 3 mm by 5 mm “pocket” was created in the corneal stroma by making a 3 mm incision to half the corneal thickness with a 69 Beaver blade. The stroma was dissected peripherally using an iris spatula and the pellet was implanted with its peripheral margin 2 mm from the limbus. […]
as §4, §5

“Also recorded” adds a separate entry of the source. [ ]: non-standard residue; d: D form.

Turning to “cyclo(Arg-Ala-Asp-D-Phe-Val) (cyclo(RAD[dF]V); SMILES CC(C)[C@@H]1NC(=O)[C@@H](Cc2ccccc2)NC(=O)[C@H](CC(=O)O)NC(=O)[C@H](C)NC(=O)[C@H](CCCNC(=N)N)NC1=O) [peptide 69601, reference compound]”, the “corneal blood vessel growth at 7 days, VEGF-stimulated eyes” value in experiment [1] (peptide s.q. 50 ug per kg initial, 20 ug/kg daily, 1 ug VEGF pellet) was “substantial corneal blood vessel growth”. In the experiment on UCLAP-3 tumors, the “effect on tumor wet weight, UCLAP-3” value is “lack of effect”. In addition, the “corneal blood vessel growth at 7 days, bFGF-stimulated eyes” value in experiment [2] (peptide s.q. 50 ug per kg initial, 20 ug/kg daily, 100 ng bFGF pellet) is “substantial corneal blood vessel growth”.
As for “cyclo(Arg-Gly-Asp-D-Phe-NMeVal) [peptide 85189]”, in experiment [1] (peptide s.q. 50 ug per kg initial, 20 ug/kg daily, 7 days, 1 ug VEGF pellet), the “inhibition of corneal blood vessel growth” value is listed as ~100%. Further, the “effect on tumor wet weight, UCLAP-3” value in the experiment on UCLAP-3 tumors is reported as “reduction in tumor weight”. In experiment [2] (peptide s.q. 50 ug per kg initial, 20 ug/kg daily, 7 days, 100 ng bFGF pellet), the “amount of corneal blood vessel growth compared to controls” value is reported as “less than 50%”.

B1: LM609: mouse monoclonal antibody, anti-αvβ3 (antibody, V domains shown)
VH: EVQLEESGGGLVKPGGSLKLSCAASGFAFSSYDMSWVRQIPEKRLEWVAKVSSGGGSTYYLDTVQGRFTISRDNAKNTLYLQMSSLNSEDTAMYYCARHNYGSFAYWGQGTLVTVSA
VL: ELVMTQTPATLSVTPGDSVSLSCRASQSISNHLHWYQQKSHESPRLLIKYASQSISGIPSRFSGSGSGTDFTLSINSVETEDFGMYFCQQSNSWPHTFGGGTKLEIKRA
For the molecule B1, in experiment [1] (Hydron pellet with 750 ng VEGF and 40 μg mAb, postoperative day 10), the “inhibition of VEGF-induced corneal angiogenesis” value is “not effective at inhibiting VEGF-induced angiogenesis; also recorded: minimal effect on VEGF-induced angiogenesis”. Further, the “reduction of bFGF-induced angiogenesis (mean neovascular area)” value in experiment [2] (40 μg mAb in pellet, compared to paired eye treated with P1F6, p<0.005) is given as 86%. Also, in experiment [2] (Hydron pellet with 750 ng bFGF and 40 μg mAb, postoperative day 10), the “inhibition of bFGF-induced corneal angiogenesis” value is listed as “inhibited”.

For the origin of these results see patent US7053041B1, “Methods and compositions useful for inhibition of αvβ5mediated angiogenesis” (The Scripps Research Institute, priority 1996, dated 2006).
